According to US20250304911A1, “CYSTEINE PROTOTROPHY” (Pfizer Inc., priority 2022, published 2025):

Key:
[1] = tested on: GNMT clone 19; experiment: pH-adjusted fedbatch culture with Fer1, OA or Vitamin K1, GNMT clone 19; format: cell-based, Chinese hamster; settings: 10 uM Vitamin K1 on days 0, 4, 5 and 6, FIG. 11B
Description: (§1) Two GNMT clones (overexpressing CBS, CTH and GNMT), clone 15 and 19, were cultivated in pH-adjusted fedbatch cultures in multiple shake flasks. Cells were seeded at 0.5E6 cell/mL in cysteine-free internal basal medium and were fed with 1% cysteine-free, nutrient rich medium daily starting day 4. For the first set of shake flasks, cultures for each clone were treated with 1 uM of Fer1 or 10 uM of OA on days 0, 5 and 6, or left untreated. For the second set of shake flasks, cultures for each clone were treated with 10 uM of Vitamin K1 on days, 0, 4, 5 and 6. Viable cell densities and viabilities were measured on various days during the fedbatch culture.

[2] = tested on: GNMT clone 15; experiment: pH-adjusted fedbatch culture with Fer1, OA or Vitamin K1, GNMT clone 15; format: cell-based, Chinese hamster; settings: for Viabilities by the end of the culture, treated versus untreated: 1 uM Fer1 or 10 uM OA on days 0, 5 and 6, FIG. 11A
Description: as §1

[3] = tested on: CBS+CTH cell pool; experiment: Sequential batch culture of CBS+CTH cell pool with or without BME; format: cell-based, Chinese hamster; settings: cysteine-free CD-CHO, 50 uM BME, FIG. 8
Description: (§2) GNMT cell pools and CBS+CTH cell pools that had been adapted to grown in cysteine-free and homocysteine-free conditions as described in Example 7 were cultivated in 3-day or 4-day sequential batch cultures in cysteine-free CD-CHO media with or without 50 uM BME with the aim of testing the growth and adapting the cells to BME free conditions.

[4] = tested on: GNMT cell pool; experiment: Sequential batch culture of GNMT cell pool with or without BME; format: cell-based, Chinese hamster; settings: cysteine-free CD-CHO, 50 uM BME, within one passage, FIG. 8
Description: as §2

[5] = tested on: GNMT cells (CHO cell pools overexpressing CBS, CTH and GNMT); experiment: Growth of GNMT cell pool in L-homocysteine supplemented cysteine free CD CHO medium; format: cell-based, Chinese hamster; settings: FIG. 4
Description: (§3) Next, the growth of CHO cell pools overexpressing CBS and CTH (referred to as “CBS+CTH” cells) or overexpressing CBS, CTH and GNMT (referred to as “GNMT” cells) was evaluated in cysteine free CD CHO medium or L-homocysteine supplemented cysteine free CD CHO medium. […] Subsequently, as described in more detail in Example 7, the CBS+CTH and the GNMT cell pools were adapted to grow in L-homocysteine free conditions. For both the CBS+CTH and GNMT cell pools, gene expression levels of CTH, CBS, GNMT and MTR were measured before and after adaptation to L-homocysteine free conditions (Table 5).

[6] = tested on: CBS+CTH cells (CHO cell pools overexpressing CBS and CTH); experiment: Growth of CBS+CTH cell pool in L-homocysteine supplemented cysteine free CD CHO medium; format: cell-based, Chinese hamster; settings: FIG. 4
Description: as §3

[7] = tested on: GNMT clone 9; experiment: Batch shake flask maintenance culture with oleic acid and ferroptosis inducers, GNMT clone 9; settings: for Viable Cell Density / Viability: Clone 9
Description: (§4) Two GNMT clones, clone 9 and 16, were cultivated for two passages in cysteine-free CD-CHO medium with and without oleic acid. In the oleic acid supplemented conditions, first passage received 1 micromolar (uM) of oleic acid and the second passage received 10 uM of oleic acid. In the third passage, the clones were cultivated in absence of OA but growth in presence of ferroptosis inducers, iron (12 uM ferrous sulphate) and zinc (10 uM zinc sulfate) to understand impact of prior culture in OA on ferroptosis.

[8] = tested on: GNMT clone 16; experiment: Batch shake flask maintenance culture with oleic acid and ferroptosis inducers, GNMT clone 16; settings: for Viable Cell Density / Viability: Clone 16; for Growth and viability in iron and zinc supplemented cultures compared to untreated: 12 uM ferrous sulphate, 10 uM zinc sulfate, with or without prior OA
Description: as §4

[9] = +10 uM OA (prior passages), Day 0, CD CHO alone, + 12 uM FeSO4 or + 10 uM ZnSO4
[10] = +10 uM OA (prior passages), Day 3, CD CHO alone, + 12 uM FeSO4 or + 10 uM ZnSO4
[11] = +10 uM OA (prior passages), Day 4, CD CHO alone, + 12 uM FeSO4 or + 10 uM ZnSO4
[12] = No OA, Day 0, CD CHO + 12 uM FeSO4 or + 10 uM ZnSO4
[13] = No OA, Day 3, CD CHO + 12 uM FeSO4 or + 10 uM ZnSO4
[14] = No OA, Day 4, CD CHO + 12 uM FeSO4 or + 10 uM ZnSO4

SMILES: CC1=C(C/C=C(\C)CCC[C@H](C)CCC[C@H](C)CCCC(C)C)C(=O)c2ccccc2C1=O [Vitamin K1]
- Growth and viability with Vitamin K1 supplementation [1]: improved growth and viability
- Growth and viability with Vitamin K1 supplementation ([2]; 10 uM Vitamin K1 on days 0, 4, 5 and 6, FIG. 11B): improved growth and viability

SMILES: CCOC(=O)c1ccc(NC2CCCCC2)c(N)c1 [Fer1, ferrostatin 1]
- Viabilities by the end of the culture, treated versus untreated [2]: slightly higher viabilities

SMILES: OCCS [BME, beta mercaptoethanol]
- Growth and viabilities between BME-free and BME containing conditions [3]: significantly different growth and viabilities
- Growth and viability in BME free conditions versus with BME [4]: comparable

SMILES: NC(CCS)C(=O)O [L-homocysteine, 2-amino-4-sulfanylbutanoic acid]
- Growth in L-homocysteine supplemented cysteine free medium [5]: exhibited growth
- Growth in L-homocysteine supplemented cysteine free medium [6]: exhibited growth

SMILES: CCCCCCCC/C=C\CCCCCCCC(=O)O [OA, oleic acid]
- Viabilities by the end of the culture, treated versus untreated [2]: slightly higher viabilities
- Viable Cell Density [7, 9]: 3.85 E5 c/mL
- Viable Cell Density [7, 10]: 21.99 E5 c/mL
- Viable Cell Density [7, 11]: 42.9 E5 c/mL
- Benefit of exposure to OA on growth and viability ([7]; clone 9, third passage, prior passages with 1 uM then 10 uM oleic acid): not observed
- Viable Cell Density [8, 9]: 4.44 E5 c/mL
- Viable Cell Density [8, 10]: 22.52 E5 c/mL
- Viable Cell Density [8, 11]: 48.33 E5 c/mL
- Growth and viabilities of OA exposed versus unexposed conditions ([8]; clone 16, third passage, prior passages with 1 uM then 10 uM oleic acid): higher growth and viabilities

SMILES: O=S(=O)([O-])[O-].[Zn+2] [ZnSO4, zinc sulfate]
- Viability [7, 9]: 98.9%
- Viable Cell Density [7, 9]: 3.11 E5 c/mL
- Viability [7, 10]: 97.7%
- Viable Cell Density [7, 10]: 16.78 E5 c/mL
- Viability [7, 11]: 96.4%
- Viable Cell Density [7, 11]: 30.16 E5 c/mL
- Viability [7, 12]: 100%
- Viable Cell Density [7, 12]: 3.55 E5 c/mL
- Viability [7, 13]: 97.9%
- Viable Cell Density [7, 13]: 17.26 E5 c/mL
- Viability [7, 14]: 96.7%
- Viable Cell Density [7, 14]: 32.29 E5 c/mL
- Viability [8, 9]: 99.6%
- Viable Cell Density [8, 9]: 3.84 E5 c/mL
- Viability [8, 10]: 96.2%
- Viable Cell Density [8, 10]: 13.62 E5 c/mL
- Viability [8, 11]: 96%
- Viable Cell Density [8, 11]: 32.19 E5 c/mL
- Viability [8, 12]: 99.2%
- Viable Cell Density [8, 12]: 4.31 E5 c/mL
- Viability [8, 13]: 94.9%
- Viable Cell Density [8, 13]: 12.27 E5 c/mL
- Viability [8, 14]: 94.1%
- Viable Cell Density [8, 14]: 23.99 E5 c/mL
- Growth and viability in iron and zinc supplemented cultures compared to untreated ([8]; clone 16, third passage): lower

SMILES: O=S(=O)([O-])[O-].[Fe+2] [FeSO4, ferrous sulphate]
- Viability [7, 9]: 99.6%
- Viable Cell Density [7, 9]: 3.45 E5 c/mL
- Viability [7, 10]: 99.2%
- Viable Cell Density [7, 10]: 21.94 E5 c/mL
- Viability [7, 11]: 99.1%
- Viable Cell Density [7, 11]: 38.38 E5 c/mL
- Viability [7, 12]: 100%
- Viable Cell Density [7, 12]: 3.54 E5 c/mL
- Viability [7, 13]: 99.2%
- Viable Cell Density [7, 13]: 19.65 E5 c/mL
- Viability [7, 14]: 99.3%
- Viable Cell Density [7, 14]: 39.74 E5 c/mL
- Viability [8, 9]: 99.6%
- Viable Cell Density [8, 9]: 3.63 E5 c/mL
- Viability [8, 10]: 98.6%
- Viable Cell Density [8, 10]: 19.21 E5 c/mL
- Viability [8, 11]: 99.2%
- Viable Cell Density [8, 11]: 40.8 E5 c/mL
- Viability [8, 12]: 98.7%
- Viable Cell Density [8, 12]: 4.02 E5 c/mL
- Viability [8, 13]: 98.5%
- Viable Cell Density [8, 13]: 14.07 E5 c/mL
- Viability [8, 14]: 99.1%
- Viable Cell Density [8, 14]: 31.09 E5 c/mL
- Growth and viability in iron and zinc supplemented cultures compared to untreated ([8]; clone 16, third passage): lower
